What was measured:
hGAT2 = biological target: T1, hGAT2 (Homo sapiens, UniProt Q9NSD5); assay: hGAT2 competition uptake assay with 3H-GABA in HEK-TREx-hGAT2 cells; format: cell-based
T1 construct: expressed in transfected cells; host or cells: HEK-TREx cells (HEK-TREx-GAT2 inducible cell line)
T1 sequence (Q9NSD5 1-602): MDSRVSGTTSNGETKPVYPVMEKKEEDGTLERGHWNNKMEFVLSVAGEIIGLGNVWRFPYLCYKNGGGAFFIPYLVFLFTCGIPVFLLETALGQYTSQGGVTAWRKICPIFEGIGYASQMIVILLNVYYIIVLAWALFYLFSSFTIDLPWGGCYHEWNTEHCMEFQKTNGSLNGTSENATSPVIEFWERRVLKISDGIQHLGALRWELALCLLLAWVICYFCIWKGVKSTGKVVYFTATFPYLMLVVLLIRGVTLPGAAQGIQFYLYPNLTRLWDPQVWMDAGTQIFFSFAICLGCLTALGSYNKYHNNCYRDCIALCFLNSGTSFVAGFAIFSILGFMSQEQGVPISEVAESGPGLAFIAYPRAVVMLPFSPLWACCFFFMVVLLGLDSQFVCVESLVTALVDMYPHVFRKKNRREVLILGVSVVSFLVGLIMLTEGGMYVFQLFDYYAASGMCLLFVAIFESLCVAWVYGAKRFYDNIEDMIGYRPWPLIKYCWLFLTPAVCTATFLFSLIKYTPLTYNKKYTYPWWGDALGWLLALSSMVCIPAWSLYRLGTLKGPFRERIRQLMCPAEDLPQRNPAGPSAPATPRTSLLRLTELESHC
Description: A modified competition uptake assay can be developed to determine the ability of a test compound(s) to inhibit the uptake of radiolabeled substrates into HEK-TREx-hGAT2 cells induced to over-express hGAT2. The results can be stated as affinities (IC50).
The competition uptake assay is prepared as follows: Compounds are prepared for assay by diluting a 100 mM stock concentration (in DMSO) to the appropriate working concentration. Typically, seven-point dose response curves are prepared starting at a final assay concentration of 1 mM and carrying out three-fold dilutions. […]
Scintillation fluid (200 μl) (Optiphase Supermix (Perkin Elmer) is added to each well, and the plate is covered with a 96-well adhesive plate cover and placed on a shaker for 10 minutes. The plates are counted on a 96-well plate scintillation counter for 60 sec/well. The data are analyzed using a sigmoidal dose response curve-fitting program (Prism, GraphPad, Inc, San Diego, Calif.; equation: one-site competition).
FIG. 2 depicts the results of a competition experiment using HEK-TREx-GAT2 cells. ^3H-GABA was used as the substrate and unlabeled GABA was used as the competitor. […] Non-specific uptake was determined by measuring the uptake into cells not induced to express the transporter (“no tet”). […]

PgP = biological target: T2, PgP (Homo sapiens, UniProt P08183); assay: Transwell monolayer efflux assay in MDCK cells with TREx-PgP; format: cell-based; conditions: 2.5 nM 3H-vinblastine, 250 μM verapamil
T2 construct: expressed in transfected cells; host or cells: MDCK cells
Description: Transwell monolayer efflux assays can be performed by transfecting MDCK cells with the tetracycline-inducible TREx-PgP expression vector. The cells optionally can be transfected with a nucleic acid encoding the transporter of interest. The transfected cells are seeded on polycarbonate filter membranes in transwell dishes and grown for 3-5 days, yielding a polarized monolayer with tight junctions between cells.

T2 sequence (P08183 whole entry): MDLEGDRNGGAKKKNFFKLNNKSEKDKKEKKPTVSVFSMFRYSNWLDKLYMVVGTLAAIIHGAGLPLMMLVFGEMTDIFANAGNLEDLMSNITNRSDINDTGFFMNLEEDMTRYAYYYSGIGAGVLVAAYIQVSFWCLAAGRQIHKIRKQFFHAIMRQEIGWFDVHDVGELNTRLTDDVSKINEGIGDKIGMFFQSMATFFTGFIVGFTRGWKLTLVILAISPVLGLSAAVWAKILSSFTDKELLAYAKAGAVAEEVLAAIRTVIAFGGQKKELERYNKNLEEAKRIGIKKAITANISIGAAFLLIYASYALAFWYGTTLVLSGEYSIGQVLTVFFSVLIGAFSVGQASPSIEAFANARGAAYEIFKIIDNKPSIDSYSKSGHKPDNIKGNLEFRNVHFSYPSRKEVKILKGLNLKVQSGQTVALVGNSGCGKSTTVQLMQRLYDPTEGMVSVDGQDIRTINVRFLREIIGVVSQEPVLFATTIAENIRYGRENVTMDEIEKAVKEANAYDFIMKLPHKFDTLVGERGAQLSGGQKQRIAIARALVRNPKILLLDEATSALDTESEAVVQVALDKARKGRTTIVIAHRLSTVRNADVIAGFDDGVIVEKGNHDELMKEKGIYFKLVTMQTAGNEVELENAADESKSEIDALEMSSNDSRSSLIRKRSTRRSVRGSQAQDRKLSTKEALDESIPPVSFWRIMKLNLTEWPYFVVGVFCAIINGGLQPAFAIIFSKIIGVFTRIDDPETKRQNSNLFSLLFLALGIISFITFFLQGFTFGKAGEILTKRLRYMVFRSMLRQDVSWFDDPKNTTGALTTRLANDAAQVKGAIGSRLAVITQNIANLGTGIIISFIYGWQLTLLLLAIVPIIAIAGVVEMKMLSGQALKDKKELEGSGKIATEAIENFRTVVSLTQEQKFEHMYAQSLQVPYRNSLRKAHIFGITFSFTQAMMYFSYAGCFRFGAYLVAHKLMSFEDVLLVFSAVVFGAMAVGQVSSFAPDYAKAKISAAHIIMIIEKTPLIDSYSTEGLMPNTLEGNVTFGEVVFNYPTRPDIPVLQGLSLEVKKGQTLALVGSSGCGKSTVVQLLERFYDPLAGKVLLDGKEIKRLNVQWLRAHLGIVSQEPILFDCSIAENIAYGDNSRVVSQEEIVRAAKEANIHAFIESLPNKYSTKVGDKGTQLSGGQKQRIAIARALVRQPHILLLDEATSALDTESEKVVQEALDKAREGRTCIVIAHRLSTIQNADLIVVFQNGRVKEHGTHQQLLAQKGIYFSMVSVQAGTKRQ

| Compound | uptake of labeled GABA as concentration of unlabeled GABA increased (hGAT2; HEK-TREx-GAT2 cells induced to express GAT2, FIG. 2) | IC50 (hGAT2; HEK-TREx-GAT2 cells induced to express hGAT2, 3H-GABA as substrate) [µM] | Apical to basolateral transport in the presence of verapamil (PgP) | Basolateral to apical transport in the presence of verapamil (PgP) |
| --- | --- | --- | --- | --- |
| NCCCC(=O)O [GABA, gamma-aminobutyric acid] | decreased | 13 | – | – |
| CC[C@]1(O)C[C@@H]2CN(CCc3c([nH]c4ccccc34)[C@@](C(=O)OC)(c3cc4c(cc3OC)N(C)[C@H]3[C@@](O)(C(=O)OC)[C@H](OC(C)=O)[C@]5(CC)C=CCN6CC[C@]43[C@@H]65)C2)C1 [^3H-vinblastine, vinblastine] | – | – | strongly increased | strongly decreased |
